Structures can show the parent of a compound that is named as a salt.
Legend:
[1] = target: catalytic domain of human PARP14 (Homo sapiens (Human), UniProt Q460N5); assay: Enzymatic assay for inhibition of PARP14 (DELFIA, auto-modification by biotin-NAD); format: biochemical; details: 50 nM PARP14, 3 μM biotin-NAD
Procedure: An N-terminal His-TEV fusion tag was used to purify the protein from cell lysates. The His-TEV tag was left on the protein for use in the enzymatic assay.
Enzymatic inhibition of PARP14 was measured using a dissociation-enhanced lanthanide fluorescence immunoassay (DELFIA) monitoring the auto-modification of PARP14 by biotinylated nicotinamide adenine dinucleotide (biotin-NAD). 1 μL of a dose response curve of each test compound was spotted in 384-well nickel-coated white microplates (Thermo) using a Mosquito (TTP Labtech). Reactions were performed in a 50 μL volume by adding 40 μL of PARP14 in assay buffer (20 mM HEPES pH==8, 100 mM NaCl, 0.1% bovine serum albumin, 2 mM DTT and 0.002%0 Tween20), incubating with test compound at 25° C. for 30 min, then adding 10 μL of biotin-NAD (Biolog). The final concentrations of PARP14 and biotin-NAD are 50 nM and 3 μM, respectively. Reactions proceeded at 25° C. for 3 h, then were quenched with 5 μL of 10 mM unmodified nicotinamide adenine dinucleotide (Sigma-Aldrich). […] After a 5 min incubation the plate was read on an Envision platereader equipped with a LANCE/DELFIA top mirror (Perkin Elmer) using excitation of 340 nm and emission of 615 nm to measure the amount of Europium present in each well, informing on the amount of biotin-NAD that was transferred in the automodification reaction. […]

4T1 cells = assay: Tumor growth in 4T1 murine syngeneic model; format: in vivo, mouse (BALB/c); details: 4T1 orthotopic, female BALB/c mice, 500 mg/kg PO BID, study terminated on D20
Excerpt: FIGS. 3A and 4A illustrate that a PARP14 inhibitor (Example 235) reduces tumor growth in the murine syngeneic models (A) 4T1 and (B) LL/2. For the 4T1 study (FIGS. 3A and 3B), female BALB/c mice were inoculated orthotopically in the mammary fat pad with 1×10^5 4T1 cells (ATCC, CRL-2539™) for tumor development. Seven days after tumor inoculation, 16 mice with tumor size ranging from 41-78 mm^3 (average tumor size 56 mm^3) were selected and assigned into 2 groups using stratified randomization with 8 mice in each group based upon their tumor volumes. The treatments were started from the next day post randomization (defined as randomization day DO) and were treated with vehicle (0.5% methylcellulose+0.2% Tween 80), or the compound of Example 235 (500 mg/kg PO BID*21 days). The tumor sizes were measured three times per week during the treatment. The entire study was terminated on D20.
(§1) Statistical significance, calculated using 2 way ANOVA multiple comparisons in which each treatment group was compared to vehicle control, is indicated by an asterisk. Statistics were performed on groups with less than 20% animal loss (D20 for 4T1, D17 for LL/2). Survival benefit was determined for the LL/2 study (FIG. 4B). Individual mice were euthanized once they reached the termination endpoint (TV>2000 mm3). […]

LL/2 cells = assay: Tumor growth and survival in LL/2 murine syngeneic model; format: in vivo, mouse (C57BL/6); details: LL/2 subcutaneous, female C57BL/6 mice, 500 mg/kg PO BID, study terminated on D21
Excerpt: For the LL/2 study (FIGS. 4A-4C), female C57BL/6 mice were inoculated subcutaneously in the right flank with 5×10^5 LL/2 cells (ATCC, CRL-1642™) for tumor development. Five days after tumor inoculation, 16 mice with tumor size ranging from 37-72 mm^3 (average tumor size 51 mm^3) were selected and assigned into 2 groups using stratified randomization with 8 mice in each group based upon their tumor volumes. The treatments were started from the next day post randomization (defined as randomization day DO) and were treated with vehicle (0.5% methylcellulose+0.2% Tween 80), or the compound of Example 235 (500 mg/kg PO BID*21 days). The tumor sizes were measured three times per week during the treatment. The entire study was terminated on D21.
as §1, with “mm3). The time from treatment initiation to termination was deemed as its survival time and plotted in a Kaplan-Meier survival curve format. Mice remaining at study end date of 21 days were euthanized at day 21 after treatment initiation.” for “mm3).”

Sequence of catalytic domain of human PARP14 (Q460N5 1611-1801): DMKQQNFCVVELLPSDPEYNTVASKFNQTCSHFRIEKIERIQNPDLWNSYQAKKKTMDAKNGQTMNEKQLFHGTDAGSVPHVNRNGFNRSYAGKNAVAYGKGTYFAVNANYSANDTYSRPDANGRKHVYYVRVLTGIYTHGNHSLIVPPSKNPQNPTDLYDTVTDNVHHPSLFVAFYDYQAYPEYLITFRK

Row | SMILES | IC50 [1] | Tumor growth inhibition versus vehicle group (4T1 cells) | Tumor growth inhibition versus vehicle group (LL/2 cells)
1 | O=c1[nH]c(CSC2CCOCC2)nc2cc(N[C@H]3CCC[C@@H]3F)cc(F)c12 (racemic) [Example 305] | < 1 µM |  | 
2 | Cc1cccc2c(=O)[nH]c(CS[C@@H]3CCC[C@H](CN(C)C)C3)nc12 (relative stereo) [Example 72, 2-((((cis)-3-((Dimethylamino)methyl)cyclohexyl)thio)methyl)-8-methyl quinazolin-4(3H)-one Trifluoroacetate] | > 10 µM |  | 
3 | O=c1[nH]c(CS[C@H]2CC[C@H](O)CC2)nc2cc(OCC3CC3)cc(F)c12 [Example 235, 7-(Cyclopropylmethoxy)-5-fluoro-2-(((trans-4-hydroxycyclohexyl)thio)methyl)quinazolin-4(3H)-one] |  | 31% | 63%
